Results published in US8901118B2, “Compounds and methods for kinase modulation, and indications therefor” (Plexxikon Inc., priority 2010, dated 2014).

Biological target: CYP3A4(BQ) (Homo sapiens, UniProt P08684)
Assay: CYP3A4(BQ) inhibition
Assay type: in vitro ADME
Conditions: CYP3A4, substrate BQ; read-out: Cyp IC50 3A4(BQ)
Procedure, shortened: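 Inhibition of human CYP3A4 (BQ substrate) was measured by fluorescence, since blocking metabolism of a known substrate lowers the fluorescent product signal. Compounds dissolved in DMSO at 100 mM were diluted into acetonitrile and then into NADPH regeneration cofactor mix, serially diluted 1:1 across 10 points, and preincubated in 384 well plates for 10 minutes at 37° C.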

CYP3A4(BQ), sequence (P08684 whole entry): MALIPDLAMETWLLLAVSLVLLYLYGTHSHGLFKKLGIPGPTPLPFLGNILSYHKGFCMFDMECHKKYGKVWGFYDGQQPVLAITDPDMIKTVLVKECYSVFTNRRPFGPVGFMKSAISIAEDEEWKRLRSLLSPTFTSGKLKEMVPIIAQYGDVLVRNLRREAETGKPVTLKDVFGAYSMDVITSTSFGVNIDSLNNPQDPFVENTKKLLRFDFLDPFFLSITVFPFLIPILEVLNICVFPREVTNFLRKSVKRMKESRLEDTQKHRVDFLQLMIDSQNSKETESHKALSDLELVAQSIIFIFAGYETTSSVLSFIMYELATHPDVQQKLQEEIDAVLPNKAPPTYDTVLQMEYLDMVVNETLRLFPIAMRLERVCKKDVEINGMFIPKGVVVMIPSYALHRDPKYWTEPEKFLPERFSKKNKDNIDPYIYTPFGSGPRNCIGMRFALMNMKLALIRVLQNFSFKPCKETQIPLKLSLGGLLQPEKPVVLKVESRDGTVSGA

Structure (SMILES) | IC50 [µM]
Clc1cnc2[nH]cc(Cc3cnc(NC4CCCCC4)nc3)c2c1 [Compound P-3001, [5-(5-chloro-1H-pyrrolo[2,3-b]pyridin-3-ylmethyl)-pyrimidin-2-yl]-cyclohexyl-amine] | > 10
Cc1cnc2[nH]cc(Cc3cnc(Nc4ccc(C(F)(F)F)nc4)nc3)c2c1 [Compound P-3018, [5-(5-Methyl-1H-pyrrolo[2,3-b]pyridin-3-ylmethyl)-pyrimidin-2-yl]-(6-trifluoromethyl-pyridin-3-yl)-amine] | > 10
COc1ccc(Nc2ccc(C(=O)c3c[nH]c4ncc(C)cc34)c(F)n2)cn1 [Compound P-3040, [2-Fluoro-6-(6-methoxy-pyridin-3-ylamino)-pyridin-3-yl]-(5-methyl-1H-pyrrolo[2,3-b]pyridin-3-yl)-methanone] | > 10
Cc1cnc2[nH]cc(C(=O)c3ccc(Nc4ccc(C)nc4)nc3F)c2c1 [Compound P-3043, [2-Fluoro-6-(6-methyl-pyridin-3-ylamino)-pyridin-3-yl]-(5-methyl-1H-pyrrolo[2,3-b]pyridin-3-yl)-methanone] | > 10
Cc1ccc(Nc2ccc(C(=O)c3c[nH]c4ncc(Cl)cc34)c(F)n2)cn1 [Compound P-3044, (5-Chloro-1H-pyrrolo[2,3-b]pyridin-3-yl)-[2-fluoro-6-(6-methyl-pyridin-3-ylamino)-pyridin-3-yl]-methanone] | > 10
CCc1ccc(Nc2ccc(Cc3c[nH]c4ncc(C)cc34)c(F)n2)cn1 [Compound P-3048, (6-Ethyl-pyridin-3-yl)-[6-fluoro-5-(5-methyl-1H-pyrrolo[2,3-b]pyridin-3-ylmethyl)-pyridin-2-yl]-amine] | > 10
CCc1ccc(Nc2ccc(C(=O)c3c[nH]c4ncc(C)cc34)c(F)n2)cn1 [Compound P-3049, [6-(6-Ethyl-pyridin-3-ylamino)-2-fluoro-pyridin-3-yl]-(5-methyl-1H-pyrrolo[2,3-b]pyridin-3-yl)-methanone] | > 10
Cc1cnc2[nH]cc(Cc3ccc(Nc4ccc(C5CC5)nc4)nc3F)c2c1 [Compound P-3050, (6-Cyclopropyl-pyridin-3-yl)-[6-fluoro-5-(5-methyl-1H-pyrrolo[2,3-b]pyridin-3-ylmethyl)-pyridin-2-yl]-amine] | > 10
Cc1cnc2[nH]cc(C(=O)c3ccc(Nc4ccc(C5CC5)nc4)nc3F)c2c1 [Compound P-3051, [6-(6-Cyclopropyl-pyridin-3-ylamino)-2-fluoro-pyridin-3-yl]-(5-methyl-1H-pyrrolo[2,3-b]pyridin-3-yl)-methanone] | > 10
O=C(c1ccc(Nc2ccc(C3CC3)nc2)nc1F)c1c[nH]c2ncccc12 [Compound P-3052, [6-(6-Cyclopropyl-pyridin-3-ylamino)-2-fluoro-pyridin-3-yl]-(1H-pyrrolo[2,3-b]pyridin-3-yl)-methanone] | > 10
Fc1nc(Nc2ccc(C3CC3)nc2)ccc1Cc1c[nH]c2ncccc12 [Compound P-3053, (6-Cyclopropyl-pyridin-3-yl)-[6-fluoro-5-(1H-pyrrolo[2,3-b]pyridin-3-ylmethyl)-pyridin-2-yl]-amine] | > 10
COc1ccc(Nc2ccc(Cc3c[nH]c4ncnc(C)c34)c(F)n2)cn1 [Compound P-4002, [6-Fluoro-5-(4-methyl-7H-pyrrolo[2,3-d]pyrimidin-5-ylmethyl)-pyridin-2-yl]-(6-methoxy-pyridin-3-yl)-amine] | > 10
COc1ncnc2[nH]cc(Cc3ccc(Nc4ccc(Cl)nc4)nc3F)c12 [Compound P-4003, (6-Chloro-pyridin-3-yl)-[6-fluoro-5-(4-methoxy-7H-pyrrolo[2,3-d]pyrimidin-5-ylmethyl)-pyridin-2-yl]-amine] | > 10
CCOc1ncnc2[nH]cc(Cc3ccc(Nc4ccc(C)nc4)nc3F)c12 [Compound P-4017, [5-(4-Ethoxy-7H-pyrrolo[2,3-d]pyrimidin-5-ylmethyl)-6-fluoro-pyridin-2-yl]-(6-methyl-pyridin-3-yl)-amine] | > 10
